Data from patent publication US8568997B2, “Detection system and uses therefor” (Dimerix Bioscience Pty Ltd., priority 2006, dated 2013).
“Also recorded” adds a separate entry of the source.

Experiments:
Format in all cases: cell-based
OxR2 with HA-TRHR = target: T1, OxR2 with HA-TRHR (Homo sapiens, UniProt O43614+P34981); test: eBRET between OxR2/Rluc8 and barr2/Venus with HA-TRHR as IG3
T1 construct: expressed in transfected cells; host or cells: HEK293
T1 sequence (O43614 1-444): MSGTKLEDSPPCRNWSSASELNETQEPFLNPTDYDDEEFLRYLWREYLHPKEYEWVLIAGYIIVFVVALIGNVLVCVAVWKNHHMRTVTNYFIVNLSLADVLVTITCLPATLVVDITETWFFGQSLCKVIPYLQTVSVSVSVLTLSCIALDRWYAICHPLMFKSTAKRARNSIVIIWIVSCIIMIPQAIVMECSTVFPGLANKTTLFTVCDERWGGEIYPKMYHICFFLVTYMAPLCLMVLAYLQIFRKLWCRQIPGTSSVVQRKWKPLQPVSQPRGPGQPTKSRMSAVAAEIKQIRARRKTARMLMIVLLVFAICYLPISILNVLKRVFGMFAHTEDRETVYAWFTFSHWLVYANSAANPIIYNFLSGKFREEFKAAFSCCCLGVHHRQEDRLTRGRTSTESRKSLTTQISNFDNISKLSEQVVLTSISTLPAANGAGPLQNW
T1 sequence (P34981 1-398): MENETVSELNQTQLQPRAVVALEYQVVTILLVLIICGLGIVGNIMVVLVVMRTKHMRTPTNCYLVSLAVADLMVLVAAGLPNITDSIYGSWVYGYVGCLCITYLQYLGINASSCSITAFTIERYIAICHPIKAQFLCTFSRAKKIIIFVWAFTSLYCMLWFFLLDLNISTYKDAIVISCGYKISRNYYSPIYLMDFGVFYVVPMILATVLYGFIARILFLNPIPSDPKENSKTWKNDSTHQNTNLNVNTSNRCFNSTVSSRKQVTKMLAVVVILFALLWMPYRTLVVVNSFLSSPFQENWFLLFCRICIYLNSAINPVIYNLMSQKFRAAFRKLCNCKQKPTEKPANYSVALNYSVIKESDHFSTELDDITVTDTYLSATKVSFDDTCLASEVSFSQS
Method: (§1) Phosphate-buffered saline (PBS) was used as a vehicle control.
(§2) Cells were seeded in 6-well plates at a density of approximately 630,000 cells/well (HEK293FT) or approximately 150,000 cells/well (COS-7) and maintained at 37° C., 5% CO2 in Complete Media (DMEM containing 0.3 mg/ml glutamine, 100 IU/ml penicillin and 100 μg/ml streptomycin (Gibco)) supplemented with 10% fetal calf serum (FCS; Gibco). Transient transfections were carried out 24 h after seeding using GeneJuice (Novagen) or Metafectene (Biontex) according to manufacturer instructions. 24 h post-transfection, cells were washed with PBS, detached using 0.05% trypsin/0.53 mM EDTA, resuspended in HEPES-buffered phenol red free Complete Media containing 5% FCS and added to a poly-L-lysine-coated white microplate (Nunc). 48 h post-transfection, eBRET assays were carried out following pre-incubation of cells with EnduRen™ (Promega) at a final concentration of 30-40 μM, at 37° C., 5% CO2 for 2 h. For original BRET studies, the HEPES-buffered phenol red free Complete Media was replaced with PBS and coelenterazine h (Molecular Probes) added to a final concentration of 5 μM immediately prior to commencing the assay. […] Filtered light emissions were sequentially measured for 3-5 s in each of the ‘donor wavelength window’ (400-475 nm) and ‘acceptor wavelength window’ (>500 nm for EGFP or 520-540 nm for EYFP, Topaz (TYFP) or Venus). […]

[1] = system: thyrotropin releasing hormone receptor (TRHR); test: eBRET/BRET beta-arrestin recruitment to TRHR/Rluc without IG3 (pcDNA3) in HEK293 cells
Method: eBRET measurements at 37 C were carried out on HEK293 cells transiently co-expressing TRHR/Rluc and barr2/Venus with either pcDNA3, orexin receptor 2 (OxR2), CXC chemokine receptor 2 (CXCR2), hemagglutin epitope-tagged melanocortin receptor 3 or 4 (HA-MC3R or HA-MC4R), or dopamine D2 receptor long form (D2LR) or short form (D2SR) following the treatment of each with their respective ligands.
Ligand treatments were either OxA or TRH only or both OxA and TRH combined. Phosphate-buffered saline (PBS) was used as a vehicle control.
Ligand treatments were either OxA or TRH only. Phosphate-buffered saline (PBS) was used as a vehicle control.
BRET measurements at 37 C were carried out on HEK293 cells transiently co-expressing TRHR/Rluc, barr2/Venus and pcDNA3 with increasing doses of TRH. Sigmoidal dose response curves were plotted using Prism (Graph Pad), either assuming a Hill slope of 1 or allowing for variable slope. The EC50 and Hill slope values for the variable slope curve are included in a table in the graph.
TRHR is IG1, Rluc is RC1, barr1 is IG2, EGFP is RC2 and OxR2 is IG3. The same amount of EGFP/barr1 (IG2-RC2) is transfected for each experiment.
Cells were seeded in 6-well plates at a density of approximately 630,000 cells/well (HEK293FT) or approximately 150,000 cells/well (COS-7) and maintained at 37° C., 5% CO2 in Complete Media (DMEM containing 0.3 mg/ml glutamine, 100 IU/ml penicillin and 100 μg/ml streptomycin (Gibco)) supplemented with 10% fetal calf serum (FCS; Gibco). Transient transfections were carried out 24 h after seeding using GeneJuice (Novagen) or Metafectene (Biontex) according to manufacturer instructions. 24 h post-transfection, cells were washed with PBS, detached using 0.05% trypsin/0.53 mM EDTA, resuspended in HEPES-buffered phenol red free Complete Media containing 5% FCS and added to a poly-L-lysine-coated white microplate (Nunc). 48 h post-transfection, eBRET assays were carried out following pre-incubation of cells with EnduRen™ (Promega) at a final concentration of 30-40 μM, at 37° C., 5% CO2 for 2 h. For original BRET studies, the HEPES-buffered phenol red free Complete Media was replaced with PBS and coelenterazine h (Molecular Probes) added to a final concentration of 5 μM immediately prior to commencing the assay. BRET measurements were taken at 37° C. using the Victor Light plate reader with Wallac 1420 software (Perkin-Elmer). Filtered light emissions were sequentially measured for 3-5 s in each of the ‘donor wavelength window’ (400-475 nm) and ‘acceptor wavelength window’ (>500 nm for EGFP or 520-540 nm for EYFP, Topaz (TYFP) or Venus). The BRET signal observed between interacting proteins is normalized by subtracting the background BRET ratio. This can be done in one of two ways (see Pfleger et al. (2006) Cell Signal 18, 1664-1670; Pfleger et al. (2006) Nat Protoc 1, 336-344): 1) the ratio of light emission through the ‘acceptor wavelength window’ over the 400-475 nm emission for a cell sample containing only the donor construct is subtracted from the same ratio for a sample containing the interacting acceptor and donor fusion proteins; 2) the ratio of light emission through the ‘acceptor wavelength window’ over the 400-475 nm emission for a cell sample treated with vehicle is subtracted from the same ratio for a second aliquot of the same cell sample treated with ligand. In the following examples, the first calculation will be used, unless the signal is described as the ligand-induced BRET ratio'.

OxR2 = target: T2, OxR2 (Homo sapiens, UniProt O43614); test: BRET/eBRET beta-arrestin 2 recruitment to OxR2/Rluc (or Rluc8) without IG3 (pcDNA3); conditions: OxR2/Rluc8 + barr2/Venus + pcDNA3
T2 construct: expressed in transfected cells; host or cells: HEK293
T2 sequence (O43614 1-444): T1 sequence (O43614 1-444)
Method: as §1, §2

[2] = system: TRHR335 (truncated TRHR) with OxR2; test: eBRET/BRET between TRHR335/Rluc and labelled beta-arrestin with OxR2 as IG3
Method: Cells were seeded in 6-well plates at a density of approximately 630,000 cells/well (HEK293FT) or approximately 150,000 cells/well (COS-7) and maintained at 37° C., 5% CO2 in Complete Media (DMEM containing 0.3 mg/ml glutamine, 100 IU/ml penicillin and 100 μg/ml streptomycin (Gibco)) supplemented with 10% fetal calf serum (FCS; Gibco). Transient transfections were carried out 24 h after seeding using GeneJuice (Novagen) or Metafectene (Biontex) according to manufacturer instructions. 24 h post-transfection, cells were washed with PBS, detached using 0.05% trypsin/0.53 mM EDTA, resuspended in HEPES-buffered phenol red free Complete Media containing 5% FCS and added to a poly-L-lysine-coated white microplate (Nunc). 48 h post-transfection, eBRET assays were carried out following pre-incubation of cells with EnduRen™ (Promega) at a final concentration of 30-40 μM, at 37° C., 5% CO2 for 2 h. For original BRET studies, the HEPES-buffered phenol red free Complete Media was replaced with PBS and coelenterazine h (Molecular Probes) added to a final concentration of 5 μM immediately prior to commencing the assay. […] Filtered light emissions were sequentially measured for 3-5 s in each of the ‘donor wavelength window’ (400-475 nm) and ‘acceptor wavelength window’ (>500 nm for EGFP or 520-540 nm for EYFP, Topaz (TYFP) or Venus). The BRET signal observed between interacting proteins is normalized by subtracting the background BRET ratio.

[3] = target: bradykinin B2 receptor (B2R) with HA-AT1R (Homo sapiens, UniProt P30556); test: eBRET between B2R/Rluc8 and barr2/Venus with HA-AT1R as IG3
Method: Phosphate-buffered saline (PBS) was used as a vehicle control. Data presented as ligand-induced BRET ratio.
BRET measurements at 37 C were carried out on HEK293 cells transiently co-expressing B2R/Rluc8, barr2/Venus and HA-AT1R treated with increasing doses of Angiotensin II (AngII). A sigmoidal dose response curve was plotted using Prism (GraphPad) allowing for variable slope.
Cells were seeded in 6-well plates at a density of approximately 630,000 cells/well (HEK293FT) or approximately 150,000 cells/well (COS-7) and maintained at 37° C., 5% CO2 in Complete Media (DMEM containing 0.3 mg/ml glutamine, 100 IU/ml penicillin and 100 μg/ml streptomycin (Gibco)) supplemented with 10% fetal calf serum (FCS; Gibco). Transient transfections were carried out 24 h after seeding using GeneJuice (Novagen) or Metafectene (Biontex) according to manufacturer instructions. […] BRET measurements were taken at 37° C. using the Victor Light plate reader with Wallac 1420 software (Perkin-Elmer). Filtered light emissions were sequentially measured for 3-5 s in each of the ‘donor wavelength window’ (400-475 nm) and ‘acceptor wavelength window’ (>500 nm for EGFP or 520-540 nm for EYFP, Topaz (TYFP) or Venus). […]

bradykinin B2 receptor (B2R) with HA-AT1R, sequence (P30411 whole entry): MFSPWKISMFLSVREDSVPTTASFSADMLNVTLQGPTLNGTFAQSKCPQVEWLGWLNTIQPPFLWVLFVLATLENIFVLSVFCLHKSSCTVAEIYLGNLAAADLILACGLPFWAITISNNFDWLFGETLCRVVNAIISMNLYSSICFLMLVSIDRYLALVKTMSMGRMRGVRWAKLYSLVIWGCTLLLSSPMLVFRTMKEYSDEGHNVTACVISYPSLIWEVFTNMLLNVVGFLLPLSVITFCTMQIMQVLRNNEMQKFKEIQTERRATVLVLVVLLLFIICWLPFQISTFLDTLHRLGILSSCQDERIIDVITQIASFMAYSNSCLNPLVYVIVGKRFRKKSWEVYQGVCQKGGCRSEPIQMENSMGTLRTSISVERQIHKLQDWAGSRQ
bradykinin B2 receptor (B2R) with HA-AT1R, sequence (P30556 whole entry): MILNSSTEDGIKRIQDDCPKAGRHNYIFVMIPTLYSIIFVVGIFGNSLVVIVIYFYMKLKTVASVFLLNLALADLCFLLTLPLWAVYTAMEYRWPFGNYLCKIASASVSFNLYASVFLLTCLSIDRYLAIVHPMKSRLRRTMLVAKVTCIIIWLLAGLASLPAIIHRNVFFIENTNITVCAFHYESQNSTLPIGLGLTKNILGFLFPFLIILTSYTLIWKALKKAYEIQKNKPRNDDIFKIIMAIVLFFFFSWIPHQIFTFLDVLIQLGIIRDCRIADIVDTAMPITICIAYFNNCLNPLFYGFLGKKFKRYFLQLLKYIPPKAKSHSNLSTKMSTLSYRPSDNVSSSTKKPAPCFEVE

ligand-induced eBRET signal (OxR2 with HA-TRHR) | ligand-induced eBRET signal (OxR2) | eBRET signal (ligand-induced BRET ratio) [3] | Compound | time to eBRET signal peak ([1]; HEK293, TRHR/Rluc + barr2/Venus + pcDNA3, ligand 10^−6M) | eBRET signal peak ([1]; HEK293, TRHR/Rluc + barr2/Venus + pcDNA3, ligand 10^−6M, 37 C) | eBRET signal ([1]; TRHR/Rluc + EGFP/barr (barr1, barr2 or barr1R169E), no OxR2) | dose-response Hill slope ([1]; TRHR/Rluc + barr2/Venus + pcDNA3, FIG. 10) | eBRET signal ([2]; TRHR335/Rluc + EGFP/barr1 + OxR2) | BRET signal, dose response curves ([2]; TRHR335/Rluc + barr2/Venus + OxR2)
0.05 | No ligand-induced eBRET signal |  | NC(=O)[C@@H]1CCCN1C(=O)[C@H](Cc1cnc[nH]1)NC(=O)[C@@H]1CCC(=O)N1 [TRH, pGlu-His-Pro-NH2] | Within the first minute | greater than 0.17 | rapid stimulation of the eBRET signal; also recorded: rapid increase in eBRET signal | approximately 1 | no eBRET signal above baseline | does not result in a BRET signal
 |  | robust increase in the eBRET signal | AngII |  |  |  |  |  | 
